According to ChEMBL document CHEMBL5724914, “Linking interpersonal differences in gut microbiota composition and drug biotransformation activity” (2024):

Legend:
[1] = human gut metagenome, 24 h, 2 µM
[2] = (§1) The drug is tested on Z-014 corresponding to rat gut metagenome with ENA study accession number: PRJEB37062 and ENA sample accession number: ERS12561814 for biotransformation under anaerobic condition. The drug concentrations were measured over 9 timepoints collected between 0 and 24 hours of incubation by liquid-chromatography-coupled mass spectrometry (LC–MS); details: 2 µM
[3] = human gut metagenome, 24 h, 2 µM; remark: listed apart in the source
[4] = as §1, with “on WLS-310” for “on Z-014”, “to human” for “to rat”, “number: ERS12561785” for “number: ERS12561814”; details: 2 µM
[5] = as §1, with “on Z-006” for “on Z-014”, “to mouse” for “to rat”, “number: ERS12561806” for “number: ERS12561814”; details: 2 µM
[6] = human gut metagenome, 24 h, 2 µM; remark: listed apart in the source
[7] = human gut metagenome, 24 h, 2 µM; remark: listed apart in the source
[8] = human gut metagenome, 24 h, 2 µM; remark: listed apart in the source
[9] = as §1, with “on Z-024” for “on Z-014”, “to pig” for “to rat”, “number: ERS12561823” for “number: ERS12561814”; details: 2 µM
[10] = human gut metagenome, 24 h, 2 µM; remark: listed apart in the source
[11] = human gut metagenome, 24 h, 2 µM; remark: listed apart in the source
[12] = as §1, with “Z-004” for “Z-014”, “to” for “to rat gut”, “ERS12561804” for “ERS12561814”; details: 2 µM
[13] = as §1, with “on Z-002” for “on Z-014”, “to rabbit” for “to rat”, “number: ERS12561802” for “number: ERS12561814”; details: 2 µM
[14] = as §1, with “on WLS-086” for “on Z-014”, “to human” for “to rat”, “number: ERS12561752” for “number: ERS12561814”; details: 2 µM
[15] = as §1, with “on Z-009” for “on Z-014”, “to pig” for “to rat”, “number: ERS12561809” for “number: ERS12561814”; details: 2 µM
[16] = human gut metagenome, 24 h, 2 µM; remark: listed apart in the source
[17] = as §1, with “Z-012” for “Z-014”, “to” for “to rat gut”, “ERS12561812” for “ERS12561814”; details: 2 µM
[18] = as §1, with “on WLS-350” for “on Z-014”, “to human” for “to rat”, “number: ERS12561789” for “number: ERS12561814”; details: 2 µM
[19] = human gut metagenome, 24 h, 2 µM; remark: listed apart in the source
[20] = as §1, with “Z-005” for “Z-014”, “to” for “to rat gut”, “ERS12561805” for “ERS12561814”; details: 2 µM
Further: call rule not given here.

Row | SMILES | Bacterial Biotransformation [1] | Bacterial Biotransformation [2] | Bacterial Biotransformation [3] | Bacterial Biotransformation [4] | Bacterial Biotransformation [5] | Bacterial Biotransformation [6] | Bacterial Biotransformation [7] | Bacterial Biotransformation [8] | Bacterial Biotransformation [9] | Bacterial Biotransformation [10] | Bacterial Biotransformation [11] | Bacterial Biotransformation [12] | Bacterial Biotransformation [13] | Bacterial Biotransformation [14] | Bacterial Biotransformation [15] | Bacterial Biotransformation [16] | Bacterial Biotransformation [17] | Bacterial Biotransformation [18] | Bacterial Biotransformation [19] | Bacterial Biotransformation [20]
1 | CN1CCC(OC(c2ccccc2)c2ccccc2)CC1 | Compound NOT metabolized | Compound NOT metabolized | Compound NOT metabolized | Compound metabolized | Compound NOT metabolized | Compound metabolized | Compound metabolized | Compound metabolized | Compound metabolized | Compound metabolized | Compound NOT metabolized | Compound NOT metabolized | Compound NOT metabolized | Compound metabolized | Compound NOT metabolized | Compound NOT metabolized | Compound NOT metabolized | Compound NOT metabolized | Compound metabolized | Compound NOT metabolized
2 | CCOC(=O)[C@H](CCc1ccccc1)N[C@@H](C)C(=O)N1Cc2ccccc2C[C@H]1C(=O)O | Compound NOT metabolized | Compound NOT metabolized | Compound NOT metabolized | Compound metabolized | Compound NOT metabolized | Compound metabolized | Compound metabolized | Compound metabolized | Compound NOT metabolized | Compound metabolized | Compound NOT metabolized | Compound NOT metabolized | Compound metabolized | Compound metabolized | Compound NOT metabolized | Compound metabolized | Compound NOT metabolized | Compound NOT metabolized | Compound metabolized | Compound NOT metabolized
3 | CCN1CCCC1CNC(=O)c1cc(S(=O)(=O)CC)c(N)cc1OC (centres undefined) [AMISULPRIDE] | Compound NOT metabolized | Compound NOT metabolized | Compound NOT metabolized | Compound metabolized | Compound NOT metabolized | Compound metabolized | Compound NOT metabolized | Compound metabolized | Compound NOT metabolized | Compound NOT metabolized | Compound NOT metabolized | Compound NOT metabolized | Compound metabolized | Compound metabolized | Compound NOT metabolized | Compound NOT metabolized | Compound NOT metabolized | Compound NOT metabolized | Compound NOT metabolized | Compound NOT metabolized
4 | CC(C)NCC(O)COc1ccc(CC(N)=O)cc1 (centres undefined) [ATENOLOL] | Compound NOT metabolized | Compound NOT metabolized | Compound NOT metabolized | Compound metabolized | Compound NOT metabolized | Compound NOT metabolized | Compound NOT metabolized | Compound NOT metabolized | Compound NOT metabolized | Compound NOT metabolized | Compound NOT metabolized | Compound NOT metabolized | Compound NOT metabolized | Compound metabolized | Compound NOT metabolized | Compound NOT metabolized | Compound NOT metabolized | Compound NOT metabolized | Compound NOT metabolized | Compound NOT metabolized
5 | CC(=O)OCC(=O)[C@@]1(OC(C)=O)[C@@H](C)C[C@H]2[C@@H]3C[C@H](F)C4=CC(=O)C=C[C@]4(C)[C@@]3(F)[C@@H](O)C[C@@]21C [DIFLORASONE DIACETATE] | Compound NOT metabolized | Compound NOT metabolized | Compound metabolized | Compound metabolized | Compound metabolized | Compound metabolized | Compound metabolized | Compound metabolized | Compound NOT metabolized | Compound metabolized | Compound metabolized | Compound NOT metabolized | Compound metabolized | Compound metabolized | Compound metabolized | Compound metabolized | Compound metabolized | Compound metabolized | Compound metabolized | Compound metabolized
6 | CN(C)CCC=C1c2ccccc2COc2ccccc21 [DOXEPIN] | Compound NOT metabolized | Compound NOT metabolized | Compound NOT metabolized | Compound metabolized | Compound NOT metabolized | Compound NOT metabolized | Compound metabolized | Compound NOT metabolized | Compound metabolized | Compound metabolized | Compound metabolized | Compound NOT metabolized | Compound NOT metabolized | Compound NOT metabolized | Compound metabolized | Compound NOT metabolized | Compound NOT metabolized | Compound NOT metabolized | Compound NOT metabolized | Compound NOT metabolized
7 | C[C@]12CCC(=O)C=C1[C@@H]1C[C@@H]1[C@H]1[C@@H]3[C@@H]4C[C@@H]4[C@@]4(CCC(=O)O4)[C@@]3(C)CC[C@@H]12 [DROSPIRENONE] | Compound NOT metabolized | Compound NOT metabolized | Compound NOT metabolized | Compound metabolized | Compound metabolized | Compound metabolized | Compound metabolized | Compound metabolized | Compound NOT metabolized | Compound metabolized | Compound NOT metabolized | Compound NOT metabolized | Compound metabolized | Compound metabolized | Compound metabolized | Compound NOT metabolized | Compound NOT metabolized | Compound NOT metabolized | Compound metabolized | Compound metabolized
8 | CN(C/C=C/C#CC(C)(C)C)Cc1cccc2ccccc12 [TERBINAFINE] | Compound NOT metabolized | Compound NOT metabolized | – | Compound metabolized | Compound NOT metabolized | Compound NOT metabolized | Compound NOT metabolized | Compound NOT metabolized | Compound NOT metabolized | Compound NOT metabolized | Compound NOT metabolized | Compound NOT metabolized | Compound NOT metabolized | Compound metabolized | Compound metabolized | Compound NOT metabolized | Compound NOT metabolized | Compound metabolized | Compound NOT metabolized | Compound NOT metabolized
